In one assay the test system is M. chelonae. The assay is described as follows: MIC (CLSI broth dilution), RGM isolates. The format is cell-based.
Another assay deals with M. smegmatis group. The assay is described as follows: MIC (CLSI broth dilution), RGM isolates. The format is cell-based. Background: In broth dilution the organism is exposed to a series of concentrations in liquid medium.
The subject of a further assay is M. immunogenum group. The assay is described as follows: MIC (CLSI broth dilution), RGM isolates. Type of assay: cell-based. As to conditions: M. immunogenum.
A further assay relates to M. mucogenium group. The assay is described as follows: MIC (CLSI broth dilution), RGM isolates. Type of assay: cell-based.
Assay [1] deals with rapid-growing mycobacteria (RGM) isolates. The assay is described as follows: MIC (CLSI broth dilution), all RGM isolates. As to conditions: all 50 RGM isolates. Type of assay: cell-based, nontuberculous mycobacteria.
For another assay, the system named is M. fortuitum group. The assay is described as follows: MIC (CLSI broth dilution), RGM isolates. The format is cell-based.
Another assay concerns M. abscessus complex. The assay is described as follows: MIC (CLSI broth dilution), RGM isolates. The format is cell-based.
Assay [2] deals with H37Rv strain of Mycobacterium tuberculosis. The assay is described as follows: MIC against H37Rv strain. The format is cell-based. As to conditions: Mycobacterium tuberculosis, H37RV; read-out: MIC. Here is the method:
The purpose of this study was to test activity of selected tetracycline compounds against the H37Rv strain of Mycobacterium tuberculosis. Minimum inhibitory concentrations (MIC) of different tetracycline compounds against H37Rv strain were determined and are shown in Table 8.

In brackets after ≈: the same amount, converted by molar mass. Like-named read-outs stand apart in the source and are kept apart here.

Usually MIC stands for the least concentration at which growth counts as inhibited. The term MIC50 denotes an inhibitory concentration at the 50% level, which refers to growth in some studies and to a panel of isolates in others. A low value points to higher susceptibility. Usually MIC90 stands for an inhibitory concentration at the 90% level, which refers to growth in some studies and to a panel of isolates in others. High values mean weaker potency, low ones greater potency. Turning to `C[C@@H](O)[C@H]1C(=O)N2C(C(=O)O)=C(SCCN=CN)C[C@H]12` [IPM, imipenem], the MIC was 16 mg/L (≈ 53.4 µM) in the assay on M. chelonae (isolate 18, M. chelonae); 16 mg/L (≈ 53.4 µM) in the assay on M. chelonae (isolate 19, M. chelonae); 16 mg/L (≈ 53.4 µM) against M. chelonae (isolate 20, M. chelonae); 32 mg/L (≈ 107 µM) with M. chelonae (isolate 21, M. chelonae); 16 mg/L (≈ 53.4 µM) with M. chelonae (isolate 22, M. chelonae); 4 mg/L (≈ 13.4 µM) in the assay with M. smegmatis group (isolate 49, M. smegmatis group, M. goodii). Further, the MIC against M. smegmatis group (isolate 50, M. smegmatis group, M. wolinskyi) was 4 mg/L (≈ 13.4 µM); against M. immunogenum group (isolate 35, M. immunogenum group), 16 mg/L (≈ 53.4 µM); with M. immunogenum group (isolate 36, M. immunogenum group) it was 32 mg/L (≈ 107 µM); against M. immunogenum group (isolate 37, M. immunogenum group) it was 16 mg/L (≈ 53.4 µM); against M. immunogenum group (isolate 38, M. immunogenum group), 32 mg/L (≈ 107 µM); with M. mucogenium group (isolate 39, M. mucogenicum group, M. mucogenicum) it was not above 2 mg/L. Also, the MIC in the assay on M. mucogenium group (isolate 40, M. mucogenicum group, M. mucogenicum) is not above 2 mg/L; in the assay with M. mucogenium group (isolate 41, M. mucogenicum group, M. mucogenicum), not above 2 mg/L; in the assay on M. mucogenium group (isolate 42, M. mucogenicum group, M. mucogenicum) it was not above 2 mg/L; in the assay with M. mucogenium group (isolate 43, M. mucogenicum group, M. phocaicum), not above 2 mg/L; against M. mucogenium group (isolate 44, M. mucogenicum group, M. phocaicum), not above 2 mg/L; against M. mucogenium group (isolate 45, M. mucogenicum group, M. phocaicum), not above 2 mg/L. For the same compound, the MIC with M. mucogenium group (isolate 46, M. mucogenicum group, M. phocaicum) was not above 2 mg/L; with M. mucogenium group (isolate 47, M. mucogenicum group, M. phocaicum) it was not above 2 mg/L; against M. mucogenium group (isolate 48, M. mucogenicum group, M. phocaicum) it was not above 2 mg/L; in the assay with M. fortuitum group (isolate 23, M. fortuitum group, M. fortuitum) it was not above 2 mg/L; in the assay on M. fortuitum group (isolate 24, M. fortuitum group, M. fortuitum), 4 mg/L (≈ 13.4 µM); with M. fortuitum group (isolate 25, M. fortuitum group, M. fortuitum), not above 2 mg/L. In addition, the MIC in the assay with M. fortuitum group (isolate 26, M. fortuitum group, M. porcinum) was not above 2 mg/L; against M. fortuitum group (isolate 27, M. fortuitum group, M. porcinum), 4 mg/L (≈ 13.4 µM); against M. fortuitum group (isolate 28, M. fortuitum group, M. porcinum/M. boenickei) it was 8 mg/L (≈ 26.7 µM); against M. fortuitum group (isolate 29, M. fortuitum group, M. porcinum/M. boenickei) it was 4 mg/L (≈ 13.4 µM); against M. fortuitum group (isolate 30, M. fortuitum group, M. porcinum/M. boenickei), not above 2 mg/L; against M. fortuitum group (isolate 31, M. fortuitum group, M. senegalense), not above 2 mg/L. Moreover, the MIC against M. fortuitum group (isolate 32, M. fortuitum group, M. senegalense) is not above 2 mg/L; with M. fortuitum group (isolate 33, M. fortuitum group, M. senegalense), not above 2 mg/L; against M. fortuitum group (isolate 34, M. fortuitum group, M. senegalense), not above 2 mg/L; with M. abscessus complex (isolate 1, M. abscessus complex, erm gene type MAB30) it was 8 mg/L (≈ 26.7 µM); in the assay on M. abscessus complex (isolate 2, M. abscessus complex, erm gene type MAB30), 16 mg/L (≈ 53.4 µM); against M. abscessus complex (isolate 3, M. abscessus complex, erm gene type MAB30), 8 mg/L (≈ 26.7 µM). The MIC with M. abscessus complex (isolate 4, M. abscessus complex, erm gene type massiliense) was found to be 8 mg/L (≈ 26.7 µM); in the assay with M. abscessus complex (isolate 5, M. abscessus complex, erm gene type massiliense/subsp. abs hybrid), 16 mg/L (≈ 53.4 µM); against M. abscessus complex (isolate 6, M. abscessus complex, erm gene type Type 1 abscessus), 8 mg/L (≈ 26.7 µM); against M. abscessus complex (isolate 7, M. abscessus complex, erm gene type Type 1 abscessus) it was 8 mg/L (≈ 26.7 µM); in the assay with M. abscessus complex (isolate 8, M. abscessus complex, erm gene type Type 1 abscessus), 8 mg/L (≈ 26.7 µM); with M. abscessus complex (isolate 9, M. abscessus complex, erm gene type Type 1 abscessus), 16 mg/L (≈ 53.4 µM). Besides, the MIC against M. abscessus complex (isolate 10, M. abscessus complex, erm gene type Type 1 abscessus) is 16 mg/L (≈ 53.4 µM); with M. abscessus complex (isolate 11, M. abscessus complex, erm gene type Type 6 abscessus), 8 mg/L (≈ 26.7 µM); with M. abscessus complex (isolate 12, M. abscessus complex, erm gene type Type 6 abscessus) it was 16 mg/L (≈ 53.4 µM); with M. abscessus complex (isolate 13, M. abscessus complex, erm gene type Type 6 abscessus) it was 8 mg/L (≈ 26.7 µM); against M. abscessus complex (isolate 14, M. abscessus complex, erm gene type Type 6 abscessus), 8 mg/L (≈ 26.7 µM); in the assay on M. abscessus complex (isolate 15, M. abscessus complex, erm gene type Type 7 abscessus), 8 mg/L (≈ 26.7 µM). Besides, the MIC in the assay on M. abscessus complex (isolate 16, M. abscessus complex, erm gene type Type 7 abscessus) was 8 mg/L (≈ 26.7 µM); against M. abscessus complex (isolate 17, M. abscessus complex, erm gene type Type 8 abscessus) it was 8 mg/L (≈ 26.7 µM). Further, the MIC50 in assay [1] amounted to 8 mg/L (≈ 26.7 µM). In addition, in assay [1], the MIC90 worked out at 16 mg/L (≈ 53.4 µM).

As to `NC[C@H]1O[C@H](O[C@H]2[C@H](O)[C@@H](O[C@H]3O[C@H](CO)[C@@H](O)[C@H](N)[C@H]3O)[C@H](N)C[C@@H]2N)[C@H](N)C[C@@H]1O` [TOB, tobramycin], the MIC is not above 2 mg/L in the assay with M. chelonae (Mycobacteroides chelonae, isolate 18, M. chelonae, read-out: MIC); not above 2 mg/L with M. chelonae (Mycobacteroides chelonae, isolate 19, M. chelonae, read-out: MIC); not above 2 mg/L in the assay with M. chelonae (Mycobacteroides chelonae, isolate 20, M. chelonae, read-out: MIC); not above 2 mg/L in the assay on M. chelonae (Mycobacteroides chelonae, isolate 21, M. chelonae, read-out: MIC); not above 2 mg/L in the assay on M. chelonae (Mycobacteroides chelonae, isolate 22, M. chelonae, read-out: MIC); 8 mg/L (≈ 17.1 µM) with M. immunogenum group (isolate 36, M. immunogenum group, read-out: MIC). Further, the MIC in the assay on M. immunogenum group (isolate 37, M. immunogenum group, read-out: MIC) is more than 8 mg/L; in the assay with M. immunogenum group (isolate 38, M. immunogenum group, read-out: MIC) it was more than 8 mg/L.

For `CC(C)COC(=O)NCc1cc(N(C)C)c2c(c1O)C(=O)C1=C(O)[C@]3(O)C(=O)C(C(N)=O)=C(O)[C@H](N(C)C)[C@@H]3C[C@@H]1C2` [Compound 11], the MIC in assay [2] was more than 32 mg/L.

Take `CN(C)c1cc(CNCC(C)(C)C)c(O)c2c1C[C@H]1C[C@H]3[C@H](N(C)C)C(O)=C(C(N)=O)C(=O)[C@@]3(O)C(O)=C1C2=O` [Compound 17]: the MIC in assay [2] was 32 mg/L (≈ 57.5 µM).

`CCOC(=O)NCc1cc(N(C)C)c2c(c1O)C(=O)C1=C(O)[C@]3(O)C(=O)C(C(N)=O)=C(O)[C@H](N(C)C)[C@@H]3C[C@@H]1C2` [Compound 13]: the MIC in assay [2] was determined as 16 mg/L (≈ 28.6 µM).

Turning to `CCc1cc(CC)c2c(c1O)C(=O)C1=C(O)[C@]3(O)C(=O)C(C(N)=O)=C(O)[C@@H](N(C)C)[C@@H]3C[C@@H]1C2` [Compound 4], the MIC in assay [2] is more than 32 mg/L.
